The numbers were not newly measured in patent publication US20240139208A1, “COMBINED PHARMACEUTICAL COMPOSITION CONTAINING CDK4/6 INHIBITOR AND USE THEREOF” (CHIA TAI TIANQING PHARMACEUTICAL GROUP CO., LTD., priority 2021, published 2024), which cites them from elsewhere.

In the case of `C[C@]12CC[C@@H]3c4ccc(O)cc4C[C@@H](CCCCCCCCC[S+]([O-])CCCC(F)(F)C(F)(F)F)[C@H]3[C@@H]1CC[C@@H]2O` (stereo partly drawn) [Fulvestrant, 7-α-[9-(4,4,5,5,5-pentafluoropentylsulfinyl)nonyl]estra-1,3,5-(10)-triene-3,17-β-diol], the solubility in water result is on record as “insoluble”.
